{
  "source": "ChEMBL document CHEMBL4219200",
  "about": "“Beta-sitosterol and its derivatives repress lipopolysaccharide/d-galactosamine-induced acute hepatic injury by inhibiting the oxidation and inflammation in mice” (Bioorg Med Chem Lett, 2018)",
  "key": {"[1]": {"tested_on": "Mus musculus", "assay": "Hepatoprotective activity against lipopolysaccharide/D-galactosamine-induced acute hepatic injury in mouse assessed as increase in survival rate at 50 mg/kg up to 24 hrs", "type": "functional, organism-based"}, "[2]": {"tested_on": "L02", "assay": "Cytotoxicity against human L02 cells up to 10 uM by MTT assay", "type": "cell-based"}, "[3]": {"assay": "Solubility of the compound in water assessed as volume of solvent required to dissolve 1 g of compound", "type": "physicochemical", "settings": "buffer"}, "[4]": {"tested_on": "Mus musculus", "assay": "Hepatoprotective activity against lipopolysaccharide/D-galactosamine-induced acute hepatic injury in mouse assessed as inhibition of LPS/GalN-induced decrease in CAT level in liver at 50 mg/kg", "type": "functional, organism-based"}, "[5]": {"tested_on": "Mus musculus", "assay": "Hepatoprotective activity against lipopolysaccharide/D-galactosamine-induced acute hepatic injury in mouse assessed as reduction in serum AST level at 50 mg/kg", "type": "functional, organism-based"}, "[6]": {"tested_on": "Mus musculus", "assay": "Hepatoprotective activity against lipopolysaccharide/D-galactosamine-induced acute hepatic injury in mouse assessed as inhibition of LPS/GalN-induced increase in IL-6 level in liver at 12.5 to 50 mg/kg", "type": "functional, organism-based"}, "[7]": {"tested_on": "Mus musculus", "assay": "Hepatoprotective activity against lipopolysaccharide/D-galactosamine-induced acute hepatic injury in mouse assessed as inhibition of TNFalpha mRNA level in liver at 12.5 to 50 mg/kg by RT-PCR analysis", "type": "functional, organism-based"}, "[8]": {"tested_on": "Mus musculus", "assay": "Hepatoprotective activity against lipopolysaccharide/D-galactosamine-induced acute hepatic injury in mouse assessed as reduction in serum ALT level at 50 mg/kg", "type": "functional, organism-based"}, "[9]": {"tested_on": "Mus musculus", "assay": "Hepatoprotective activity against lipopolysaccharide/D-galactosamine-induced acute hepatic injury in mouse assessed as decrease in TLR4 protein level in liver at 12.5 to 50 mg/kg by Western blot analysis", "type": "functional, organism-based"}, "[10]": {"tested_on": "Mus musculus", "assay": "Hepatoprotective activity against lipopolysaccharide/D-galactosamine-induced acute hepatic injury in mouse assessed as increase in Nrf2 mRNA level in liver at 12.5 to 50 mg/kg by RT-PCR analysis", "type": "functional, organism-based"}, "[11]": {"tested_on": "Mus musculus", "assay": "Hepatoprotective activity against lipopolysaccharide/D-galactosamine-induced acute hepatic injury in mouse assessed as inhibition of LPS/GalN-induced decrease in GSH level in liver at 50 mg/kg", "type": "functional, organism-based"}, "[12]": {"tested_on": "Mus musculus", "assay": "Hepatoprotective activity against lipopolysaccharide/D-galactosamine-induced acute hepatic injury in mouse assessed as inhibition of LPS/GalN-induced increase in IL-1beta level in serum at 12.5 to 50 mg/kg", "type": "functional, organism-based"}, "[13]": {"tested_on": "Mus musculus", "assay": "Hepatoprotective activity against lipopolysaccharide/D-galactosamine-induced acute hepatic injury in mouse assessed as inhibition of NFkB mRNA level in liver at 12.5 to 50 mg/kg by RT-PCR analysis", "type": "functional, organism-based"}, "[14]": {"tested_on": "Mus musculus", "assay": "Hepatoprotective activity against lipopolysaccharide/D-galactosamine-induced acute hepatic injury in mouse assessed as inhibition of liver cell necrosis at 50 mg/kg up to 24 hrs by microscopic method", "type": "functional, organism-based"}, "[15]": {"tested_on": "Mus musculus", "assay": "Hepatoprotective activity against lipopolysaccharide/D-galactosamine-induced acute hepatic injury in mouse assessed as increase in HO1 protein level in liver at 50 mg/kg by Western blot analysis", "type": "functional, organism-based"}, "[16]": {"tested_on": "Mus musculus", "assay": "Hepatoprotective activity against lipopolysaccharide/D-galactosamine-induced acute hepatic injury in mouse assessed as increase in IkB protein level in liver at 50 mg/kg by Western blot analysis", "type": "functional, organism-based"}, "[17]": {"tested_on": "Mus musculus", "assay": "Hepatoprotective activity against lipopolysaccharide/D-galactosamine-induced acute hepatic injury in mouse assessed as inhibition of LPS/GalN-induced increase in TNFalpha level in serum at 12.5 to 50 mg/kg", "type": "functional, organism-based"}, "[18]": {"tested_on": "Mus musculus", "assay": "Hepatoprotective activity against lipopolysaccharide/D-galactosamine-induced acute hepatic injury in mouse assessed as inhibition of LPS/GalN-induced increase in MDA level in liver at 50 mg/kg", "type": "functional, organism-based"}, "[19]": {"tested_on": "Mus musculus", "assay": "Hepatoprotective activity against lipopolysaccharide/D-galactosamine-induced acute hepatic injury in mouse assessed as inhibition of Il-1beta mRNA level in liver at 12.5 to 50 mg/kg by RT-PCR analysis", "type": "functional, organism-based"}, "[20]": {"tested_on": "Mus musculus", "assay": "Hepatoprotective activity against lipopolysaccharide/D-galactosamine-induced acute hepatic injury in mouse assessed as inhibition of LPS/GalN-induced increase in TNFalpha level in liver at 12.5 to 50 mg/kg", "type": "functional, organism-based"}, "[21]": {"tested_on": "Mus musculus", "assay": "Hepatoprotective activity against lipopolysaccharide/D-galactosamine-induced acute hepatic injury in mouse assessed as increase in Nrf2 protein level in liver at 50 mg/kg by Western blot analysis", "type": "functional, organism-based"}, "[22]": {"tested_on": "Mus musculus", "assay": "Hepatoprotective activity against lipopolysaccharide/D-galactosamine-induced acute hepatic injury in mouse assessed as restoration of hepatic lobular structure at 50 mg/kg up to 24 hrs by microscopic method", "type": "functional, organism-based"}, "[23]": {"tested_on": "Mus musculus", "assay": "Hepatoprotective activity against lipopolysaccharide/D-galactosamine-induced acute hepatic injury in mouse assessed as inhibition of LPS/GalN-induced decrease in SOD level in liver at 50 mg/kg", "type": "functional, organism-based"}, "[24]": {"tested_on": "Mus musculus", "assay": "Hepatoprotective activity against lipopolysaccharide/D-galactosamine-induced acute hepatic injury in mouse assessed as decrease in NF-kB protein level in liver at 12.5 to 50 mg/kg by Western blot analysis", "type": "functional, organism-based"}, "[25]": {"tested_on": "Mus musculus", "assay": "Hepatoprotective activity against lipopolysaccharide/D-galactosamine-induced acute hepatic injury in mouse assessed as inhibition of LPS/GalN-induced increase in IL-6 level in serum at 12.5 to 50 mg/kg", "type": "functional, organism-based"}, "[26]": {"tested_on": "Mus musculus", "assay": "Hepatoprotective activity against lipopolysaccharide/D-galactosamine-induced acute hepatic injury in mouse assessed as inhibition of LPS/GalN-induced increase in IL-1beta level in liver at 12.5 to 50 mg/kg", "type": "functional, organism-based"}},
  "note": "Active and inactive are the calls of the source. The rule behind the calls is not given here.",
  "data": [
    {"smiles": "CC[C@H](CC[C@@H](C)[C@H]1CC[C@H]2[C@@H]3CC=C4C[C@@H](OC(=O)c5ccco5)CC[C@]4(C)[C@H]3CC[C@]12C)C(C)C", "values": [
      {"measurement": "Activity", "setting": "[1]", "value": "Active"},
      {"measurement": "Activity", "setting": "[2]", "value": "Non-Toxic"},
      {"measurement": "solubility", "setting": "[3]", "value": "1000 to 10000", "unit": "mL"}
    ]},
    {"smiles": "C/C=C/C=C/C(=O)O[C@H]1CC[C@@]2(C)C(=CC[C@H]3[C@@H]4CC[C@H]([C@H](C)CC[C@@H](CC)C(C)C)[C@@]4(C)CC[C@@H]32)C1", "values": [
      {"measurement": "Activity", "setting": "[1]", "value": "Active"},
      {"measurement": "Activity", "setting": "[2]", "value": "Non-Toxic"},
      {"measurement": "solubility", "setting": "[3]", "value": "1000 to 10000", "unit": "mL"}
    ]},
    {"smiles": "CC[C@H](CC[C@@H](C)[C@H]1CC[C@H]2[C@@H]3CC=C4C[C@@H](O)CC[C@]4(C)[C@H]3CC[C@]12C)C(C)C", "note": "[BETA-SITOSTEROL]", "values": [
      {"measurement": "Activity", "setting": "[1]", "value": "Active"},
      {"measurement": "solubility", "setting": "[3]", "value": "<= 10000 ml"}
    ]},
    {"smiles": "CC[C@H](CC[C@@H](C)[C@H]1CC[C@H]2[C@@H]3CC=C4C[C@@H](OC(=O)c5ccc6ccccc6c5)CC[C@]4(C)[C@H]3CC[C@]12C)C(C)C", "values": [
      {"measurement": "Activity", "setting": "[1]", "value": "Active"},
      {"measurement": "inhibition", "setting": "[4]", "value": "Active"},
      {"measurement": "Activity", "setting": "[5]", "value": "Active"},
      {"measurement": "inhibition", "setting": "[6]", "value": "Active"},
      {"measurement": "inhibition", "setting": "[7]", "value": "Active"},
      {"measurement": "Activity", "setting": "[8]", "value": "Active"},
      {"measurement": "Activity", "setting": "[9]", "value": "Active"},
      {"measurement": "Activity", "setting": "[10]", "value": "Active"},
      {"measurement": "inhibition", "setting": "[11]", "value": "Active"},
      {"measurement": "inhibition", "setting": "[12]", "value": "Active"},
      {"measurement": "inhibition", "setting": "[13]", "value": "Active"},
      {"measurement": "Activity", "setting": "[2]", "value": "Non-Toxic"},
      {"measurement": "inhibition", "setting": "[14]", "value": "Active"},
      {"measurement": "Activity", "setting": "[15]", "value": "Active"},
      {"measurement": "Activity", "setting": "[16]", "value": "Active"},
      {"measurement": "inhibition", "setting": "[17]", "value": "Active"},
      {"measurement": "inhibition", "setting": "[18]", "value": "Active"},
      {"measurement": "solubility", "setting": "[3]", "value": "1000 to 10000", "unit": "mL"},
      {"measurement": "inhibition", "setting": "[19]", "value": "Active"},
      {"measurement": "inhibition", "setting": "[20]", "value": "Active"},
      {"measurement": "Activity", "setting": "[21]", "value": "Active"},
      {"measurement": "Activity", "setting": "[22]", "value": "Active"},
      {"measurement": "inhibition", "setting": "[23]", "value": "Active"},
      {"measurement": "Activity", "setting": "[24]", "value": "Active"},
      {"measurement": "inhibition", "setting": "[25]", "value": "Active"},
      {"measurement": "inhibition", "setting": "[26]", "value": "Active"}
    ]},
    {"smiles": "CC[C@H](CC[C@@H](C)[C@H]1CC[C@H]2[C@@H]3CC=C4C[C@@H](OC(=O)c5ccccc5O)CC[C@]4(C)[C@H]3CC[C@]12C)C(C)C", "values": [
      {"measurement": "Activity", "setting": "[1]", "value": "Active"},
      {"measurement": "Activity", "setting": "[2]", "value": "Non-Toxic"},
      {"measurement": "solubility", "setting": "[3]", "value": "1000 to 10000", "unit": "mL"}
    ]}
  ]
}
